What was measured:
Experiment in all cases: radiometric filter-binding kinase assay
[1] = test system: AKT1 (human), P31749 [S473D]
AURKA (human) = AURKA (human) (UniProt O14965)
BRSK1 (human) = BRSK1 (human) (UniProt Q8TDC3)
DYRK2 (human) = DYRK2 (human) (UniProt Q92630)
EEF2K (human) = EEF2K (human) (UniProt O00418)
EPHA2 (human) = EPHA2 (human) (UniProt P29317)
EPHB3 (human) = EPHB3 (human) (UniProt P54753); details: compound 50.0 µM
ERBB4 (human) = ERBB4 (human) (UniProt Q15303)
GSK3B (human) = GSK3B (human) (UniProt P49841)
Chain of GSK3B (human) (P49841 whole entry, looked up): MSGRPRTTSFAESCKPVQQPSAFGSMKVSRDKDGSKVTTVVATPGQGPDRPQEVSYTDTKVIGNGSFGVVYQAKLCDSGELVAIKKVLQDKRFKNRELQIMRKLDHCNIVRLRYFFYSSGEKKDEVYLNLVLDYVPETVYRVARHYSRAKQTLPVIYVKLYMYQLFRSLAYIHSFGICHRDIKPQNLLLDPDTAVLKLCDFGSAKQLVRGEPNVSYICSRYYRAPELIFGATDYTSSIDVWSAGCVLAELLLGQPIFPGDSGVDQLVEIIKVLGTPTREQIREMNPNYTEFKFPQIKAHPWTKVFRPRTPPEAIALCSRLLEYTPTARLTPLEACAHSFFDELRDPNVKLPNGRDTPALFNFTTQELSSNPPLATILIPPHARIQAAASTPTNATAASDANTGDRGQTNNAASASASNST

HIPK3 (human) = HIPK3 (human) (UniProt Q9H422)
Chain of HIPK3 (human) (Q9H422 whole entry, looked up): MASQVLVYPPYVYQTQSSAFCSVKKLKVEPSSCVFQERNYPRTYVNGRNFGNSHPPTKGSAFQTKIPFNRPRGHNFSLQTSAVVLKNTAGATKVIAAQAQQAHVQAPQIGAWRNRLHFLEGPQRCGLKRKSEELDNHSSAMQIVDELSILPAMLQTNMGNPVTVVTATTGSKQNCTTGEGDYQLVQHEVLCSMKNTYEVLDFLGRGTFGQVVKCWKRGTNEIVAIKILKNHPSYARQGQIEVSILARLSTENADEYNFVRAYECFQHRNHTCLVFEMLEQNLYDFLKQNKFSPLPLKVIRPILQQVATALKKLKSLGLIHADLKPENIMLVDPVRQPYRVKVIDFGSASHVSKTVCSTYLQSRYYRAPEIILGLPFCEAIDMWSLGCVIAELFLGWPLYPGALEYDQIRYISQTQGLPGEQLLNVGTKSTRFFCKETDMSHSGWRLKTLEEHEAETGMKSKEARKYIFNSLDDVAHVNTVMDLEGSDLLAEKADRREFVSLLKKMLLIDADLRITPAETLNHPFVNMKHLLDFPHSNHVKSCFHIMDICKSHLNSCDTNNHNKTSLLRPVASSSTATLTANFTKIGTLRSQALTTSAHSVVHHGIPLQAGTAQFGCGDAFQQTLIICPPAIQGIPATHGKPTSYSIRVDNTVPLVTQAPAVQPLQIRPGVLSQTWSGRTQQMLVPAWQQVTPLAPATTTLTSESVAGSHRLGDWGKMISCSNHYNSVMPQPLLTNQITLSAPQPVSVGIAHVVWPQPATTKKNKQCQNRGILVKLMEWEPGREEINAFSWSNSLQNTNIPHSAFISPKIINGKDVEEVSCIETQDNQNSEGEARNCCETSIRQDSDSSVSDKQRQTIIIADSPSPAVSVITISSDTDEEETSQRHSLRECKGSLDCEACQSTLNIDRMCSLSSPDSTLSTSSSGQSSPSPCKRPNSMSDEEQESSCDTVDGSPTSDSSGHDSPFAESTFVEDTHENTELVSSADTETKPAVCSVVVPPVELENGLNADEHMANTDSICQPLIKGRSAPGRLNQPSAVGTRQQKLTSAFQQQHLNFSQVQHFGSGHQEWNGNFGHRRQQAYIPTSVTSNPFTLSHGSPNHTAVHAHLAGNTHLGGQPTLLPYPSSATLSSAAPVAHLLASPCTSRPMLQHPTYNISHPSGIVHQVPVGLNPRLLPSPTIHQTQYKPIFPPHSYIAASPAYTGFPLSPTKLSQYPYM

INSR (human) = INSR (human) (UniProt P06213)
IRAK4 (human) = IRAK4 (human) (UniProt Q9NWZ3)
MAP2K2 (human) = MAP2K2 (human) (UniProt P36507)
Chain of MAP2K2 (human) (P36507 whole entry, looked up): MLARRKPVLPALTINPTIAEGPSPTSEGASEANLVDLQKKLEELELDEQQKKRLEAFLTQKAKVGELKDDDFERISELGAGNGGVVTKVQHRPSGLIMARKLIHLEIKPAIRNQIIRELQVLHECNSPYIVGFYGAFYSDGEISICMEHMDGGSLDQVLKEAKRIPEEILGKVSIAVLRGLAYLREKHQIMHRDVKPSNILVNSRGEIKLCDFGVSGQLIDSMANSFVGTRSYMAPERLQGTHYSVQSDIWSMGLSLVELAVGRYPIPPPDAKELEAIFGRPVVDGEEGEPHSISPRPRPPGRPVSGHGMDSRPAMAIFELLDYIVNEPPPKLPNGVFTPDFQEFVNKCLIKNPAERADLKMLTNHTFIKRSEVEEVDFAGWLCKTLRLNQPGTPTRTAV

MAP2K6 (human) = MAP2K6 (human) (UniProt P52564)
MAP3K1 (human) = MAP3K1 (human) (UniProt Q13233)
MAP3K11 (human) = MAP3K11 (human) (UniProt Q16584)
MAP3K5 (human) = MAP3K5 (human) (UniProt Q99683)
MAP3K7 TAB1 (human) = MAP3K7 TAB1 (human) (UniProt Q15750+O43318); details: compound 10.0 µM
MAP3K9 (human) = MAP3K9 (human) (UniProt P80192)
MAPK12 (human) = MAPK12 (human) (UniProt P53778)
Chain of MAPK12 (human) (P53778 whole entry, looked up): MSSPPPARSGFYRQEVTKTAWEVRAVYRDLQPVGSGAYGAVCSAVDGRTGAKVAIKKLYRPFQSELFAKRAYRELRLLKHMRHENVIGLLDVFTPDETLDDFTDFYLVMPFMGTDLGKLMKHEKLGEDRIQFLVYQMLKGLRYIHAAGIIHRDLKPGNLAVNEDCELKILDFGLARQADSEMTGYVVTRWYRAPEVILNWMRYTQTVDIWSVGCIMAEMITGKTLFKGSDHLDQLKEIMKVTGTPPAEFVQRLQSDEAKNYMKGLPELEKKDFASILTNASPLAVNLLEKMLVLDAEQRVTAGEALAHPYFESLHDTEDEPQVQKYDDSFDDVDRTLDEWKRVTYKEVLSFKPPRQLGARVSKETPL

MAPK9 (human) = MAPK9 (human) (UniProt P45984); details: compound 50.0 µM
MAPKAPK2 (human) = MAPKAPK2 (human) (UniProt P49137)
Chain of MAPKAPK2 (human) (P49137 whole entry, looked up): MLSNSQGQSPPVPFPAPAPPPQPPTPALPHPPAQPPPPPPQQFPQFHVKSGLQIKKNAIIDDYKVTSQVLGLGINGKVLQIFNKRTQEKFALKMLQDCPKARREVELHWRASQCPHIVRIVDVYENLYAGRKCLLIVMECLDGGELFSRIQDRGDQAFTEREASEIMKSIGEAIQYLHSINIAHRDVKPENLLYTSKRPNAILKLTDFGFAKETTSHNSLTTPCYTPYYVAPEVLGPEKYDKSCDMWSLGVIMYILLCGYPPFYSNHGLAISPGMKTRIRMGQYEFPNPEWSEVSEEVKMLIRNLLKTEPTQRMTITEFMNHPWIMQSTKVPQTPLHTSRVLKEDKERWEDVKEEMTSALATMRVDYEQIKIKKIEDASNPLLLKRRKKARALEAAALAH

MARK1 (human) = MARK1 (human) (UniProt Q9P0L2)
MARK2 (human) = MARK2 (human) (UniProt Q7KZI7)
MARK4 (human) = MARK4 (human) (UniProt Q96L34)
MELK (human) = MELK (human) (UniProt Q14680)
MST4 (human) = MST4 (human) (UniProt Q9P289)
NTRK1 (human) = NTRK1 (human) (UniProt P04629)
NUAK1 (human) = NUAK1 (human) (UniProt O60285)
PAK4 (human) = PAK4 (human) (UniProt O96013)
PAK6 (human) = PAK6 (human) (UniProt Q9NQU5)
PIM1 (human) = PIM1 (human) (UniProt P11309)
Chain of PIM1 (human) (P11309 whole entry, looked up): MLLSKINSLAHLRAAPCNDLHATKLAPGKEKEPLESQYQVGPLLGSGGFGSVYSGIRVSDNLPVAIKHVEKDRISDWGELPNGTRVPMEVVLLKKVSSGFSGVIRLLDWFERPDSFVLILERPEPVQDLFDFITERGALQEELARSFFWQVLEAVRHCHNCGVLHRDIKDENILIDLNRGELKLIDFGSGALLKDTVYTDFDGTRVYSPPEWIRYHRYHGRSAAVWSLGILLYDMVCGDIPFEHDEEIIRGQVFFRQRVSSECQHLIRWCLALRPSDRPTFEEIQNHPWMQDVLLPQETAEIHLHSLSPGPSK

PKN2 (human) = PKN2 (human) (UniProt Q16513)
PRKCA (human) = PRKCA (human) (UniProt P17252)
PRKCZ (human) = PRKCZ (human) (UniProt Q05513)
[2] = molecular target: STK11 CAB39 STRADA (human) (UniProt Q9Y376+Q7RTN6+Q15831)

Chain of EEF2K (human) (O00418 whole entry, looked up): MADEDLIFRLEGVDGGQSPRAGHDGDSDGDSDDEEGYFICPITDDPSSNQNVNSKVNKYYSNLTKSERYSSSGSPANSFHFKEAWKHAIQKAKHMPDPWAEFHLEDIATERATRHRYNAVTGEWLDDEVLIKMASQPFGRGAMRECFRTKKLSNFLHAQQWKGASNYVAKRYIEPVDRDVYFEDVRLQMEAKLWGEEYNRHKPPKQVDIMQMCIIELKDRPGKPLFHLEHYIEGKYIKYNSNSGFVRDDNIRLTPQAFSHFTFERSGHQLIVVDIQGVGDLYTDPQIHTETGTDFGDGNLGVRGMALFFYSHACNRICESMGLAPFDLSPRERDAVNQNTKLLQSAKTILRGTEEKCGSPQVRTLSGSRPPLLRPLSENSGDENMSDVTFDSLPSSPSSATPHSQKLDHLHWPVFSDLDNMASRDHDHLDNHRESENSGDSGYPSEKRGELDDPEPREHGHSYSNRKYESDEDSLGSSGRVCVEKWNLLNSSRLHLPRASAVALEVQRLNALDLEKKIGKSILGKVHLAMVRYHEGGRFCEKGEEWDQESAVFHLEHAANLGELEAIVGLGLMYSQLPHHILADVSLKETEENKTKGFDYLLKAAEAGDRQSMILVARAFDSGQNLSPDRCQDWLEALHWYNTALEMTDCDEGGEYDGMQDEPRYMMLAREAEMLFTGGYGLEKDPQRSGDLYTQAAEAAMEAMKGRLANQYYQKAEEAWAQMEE
Chain of AKT1 (human), P31749 [S473D] (P31749 whole entry S473D, looked up): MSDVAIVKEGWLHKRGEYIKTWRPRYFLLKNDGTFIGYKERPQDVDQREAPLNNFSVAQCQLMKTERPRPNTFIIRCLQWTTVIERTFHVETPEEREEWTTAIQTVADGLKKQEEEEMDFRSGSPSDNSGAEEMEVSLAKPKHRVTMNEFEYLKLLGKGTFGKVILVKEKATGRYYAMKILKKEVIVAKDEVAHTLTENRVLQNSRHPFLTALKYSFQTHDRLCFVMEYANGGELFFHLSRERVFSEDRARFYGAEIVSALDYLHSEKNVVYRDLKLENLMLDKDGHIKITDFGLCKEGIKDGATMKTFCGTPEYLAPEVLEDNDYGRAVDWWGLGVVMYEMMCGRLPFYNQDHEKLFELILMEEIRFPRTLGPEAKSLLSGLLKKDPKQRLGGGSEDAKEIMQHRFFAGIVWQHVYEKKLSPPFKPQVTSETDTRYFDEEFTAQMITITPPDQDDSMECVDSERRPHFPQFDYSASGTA

Q: For CCCC(CCC)C(=O)O, which residual activity ([1]; compound 1.0 µM) is on record?
A: Its residual activity is 99%.

Q: What about the residual activity ([1]; compound 10.0 µM) of the same compound?
A: Its residual activity is 99%.

Q: And the residual activity ([1]; compound 50.0 µM)?
A: The residual activity was 102%.

Q: And the residual activity (AURKA (human); compound 10.0 µM)?
A: The residual activity was 107%.

Q: What about the residual activity (AURKA (human); compound 50.0 µM) of the same compound?
A: The residual activity was 111%.

Q: And the residual activity (BRSK1 (human); compound 10.0 µM)?
A: The residual activity was 102%.

Q: What about the residual activity (BRSK1 (human); compound 50.0 µM) of the same compound?
A: The residual activity was 124%.

Q: What about the residual activity (DYRK2 (human); compound 10.0 µM) of the same compound?
A: The residual activity was 102%.

Q: And the residual activity (DYRK2 (human); compound 50.0 µM)?
A: The residual activity was 101%.

Q: What about the residual activity (EEF2K (human); compound 1.0 µM) of the same compound?
A: Its residual activity is 97%.

Q: What about the residual activity (EEF2K (human); compound 10.0 µM) of the same compound?
A: Its residual activity is 61%.

Q: What about the residual activity (EEF2K (human); compound 50.0 µM) of the same compound?
A: Its residual activity is 71%.

Q: What about the residual activity (EPHA2 (human); compound 10.0 µM) of the same compound?
A: The residual activity was 95%.

Q: What about the residual activity (EPHA2 (human); compound 50.0 µM) of the same compound?
A: The residual activity was 99%.

Q: And the residual activity (EPHB3 (human))?
A: Its residual activity is 96%.

Q: And the residual activity (ERBB4 (human); compound 10.0 µM)?
A: The residual activity was 80%.

Q: What about the residual activity (ERBB4 (human); compound 50.0 µM) of the same compound?
A: The residual activity was 76%.

Q: What about the residual activity (GSK3B (human); compound 1.0 µM) of the same compound?
A: The residual activity was 74%.

Q: And the residual activity (GSK3B (human); compound 10.0 µM)?
A: The residual activity was 79%.

Q: What about the residual activity (GSK3B (human); compound 50.0 µM) of the same compound?
A: Its residual activity is 76%.

Q: And the residual activity (HIPK3 (human); compound 10.0 µM)?
A: Its residual activity is 89%.

Q: And the residual activity (HIPK3 (human); compound 50.0 µM)?
A: Its residual activity is 97%.

Q: What about the residual activity (INSR (human); compound 10.0 µM) of the same compound?
A: Its residual activity is 66%.

Q: And the residual activity (INSR (human); compound 50.0 µM)?
A: Its residual activity is 77%.

Q: And the residual activity (IRAK4 (human); compound 10.0 µM)?
A: Its residual activity is 94%.

Q: What about the residual activity (IRAK4 (human); compound 50.0 µM) of the same compound?
A: The residual activity was 99%.

Q: And the residual activity (MAP2K2 (human); compound 10.0 µM)?
A: Its residual activity is 102%.

Q: What about the residual activity (MAP2K2 (human); compound 50.0 µM) of the same compound?
A: The residual activity was 92%.

Q: What about the residual activity (MAP2K6 (human); compound 10.0 µM) of the same compound?
A: Its residual activity is 95%.

Q: And the residual activity (MAP2K6 (human); compound 50.0 µM)?
A: Its residual activity is 81%.

Q: What about the residual activity (MAP3K1 (human); compound 10.0 µM) of the same compound?
A: The residual activity was 107%.

Q: And the residual activity (MAP3K1 (human); compound 50.0 µM)?
A: The residual activity was 96%.

Q: What about the residual activity (MAP3K11 (human); compound 10.0 µM) of the same compound?
A: Its residual activity is 104%.

Q: And the residual activity (MAP3K11 (human); compound 50.0 µM)?
A: The residual activity was 96%.

Q: And the residual activity (MAP3K5 (human); compound 10.0 µM)?
A: The residual activity was 92%.

Q: And the residual activity (MAP3K5 (human); compound 50.0 µM)?
A: The residual activity was 83%.

Q: What about the residual activity (MAP3K7 TAB1 (human)) of the same compound?
A: Its residual activity is 92%.

Q: And the residual activity (MAP3K9 (human); compound 10.0 µM)?
A: The residual activity was 94%.

Q: What about the residual activity (MAP3K9 (human); compound 50.0 µM) of the same compound?
A: Its residual activity is 102%.

Q: What about the residual activity (MAPK12 (human); compound 1.0 µM) of the same compound?
A: Its residual activity is 93%.

Q: What about the residual activity (MAPK12 (human); compound 10.0 µM) of the same compound?
A: The residual activity was 95%.

Q: And the residual activity (MAPK12 (human); compound 50.0 µM)?
A: Its residual activity is 89%.

Q: What about the residual activity (MAPK9 (human)) of the same compound?
A: The residual activity was 104%.

Q: What about the residual activity (MAPKAPK2 (human); compound 1.0 µM) of the same compound?
A: The residual activity was 85%.

Q: And the residual activity (MAPKAPK2 (human); compound 10.0 µM)?
A: Its residual activity is 102%.

Q: And the residual activity (MAPKAPK2 (human); compound 50.0 µM)?
A: The residual activity was 99%.

Q: What about the residual activity (MARK1 (human); compound 10.0 µM) of the same compound?
A: The residual activity was 97%.

Q: What about the residual activity (MARK1 (human); compound 50.0 µM) of the same compound?
A: The residual activity was 101%.

Q: What about the residual activity (MARK2 (human); compound 10.0 µM) of the same compound?
A: Its residual activity is 104%.

Q: What about the residual activity (MARK2 (human); compound 50.0 µM) of the same compound?
A: Its residual activity is 90%.

Q: And the residual activity (MARK4 (human); compound 10.0 µM)?
A: Its residual activity is 106%.

Q: And the residual activity (MARK4 (human); compound 50.0 µM)?
A: Its residual activity is 106%.

Q: And the residual activity (MELK (human); compound 10.0 µM)?
A: Its residual activity is 97%.

Q: What about the residual activity (MELK (human); compound 50.0 µM) of the same compound?
A: The residual activity was 92%.

Q: What about the residual activity (MST4 (human); compound 10.0 µM) of the same compound?
A: The residual activity was 102%.

Q: And the residual activity (MST4 (human); compound 50.0 µM)?
A: The residual activity was 100%.

Q: And the residual activity (NTRK1 (human); compound 10.0 µM)?
A: The residual activity was 91%.

Q: What about the residual activity (NTRK1 (human); compound 50.0 µM) of the same compound?
A: The residual activity was 89%.

Q: And the residual activity (NUAK1 (human); compound 10.0 µM)?
A: The residual activity was 88%.

Q: What about the residual activity (NUAK1 (human); compound 50.0 µM) of the same compound?
A: The residual activity was 86%.

Q: What about the residual activity (PAK4 (human); compound 10.0 µM) of the same compound?
A: Its residual activity is 86%.

Q: What about the residual activity (PAK4 (human); compound 50.0 µM) of the same compound?
A: The residual activity was 90%.

Q: What about the residual activity (PAK6 (human); compound 10.0 µM) of the same compound?
A: Its residual activity is 95%.

Q: What about the residual activity (PAK6 (human); compound 50.0 µM) of the same compound?
A: The residual activity was 104%.

Q: What about the residual activity (PIM1 (human); compound 10.0 µM) of the same compound?
A: Its residual activity is 98%.

Q: What about the residual activity (PIM1 (human); compound 50.0 µM) of the same compound?
A: Its residual activity is 100%.

Q: What about the residual activity (PKN2 (human); compound 1.0 µM) of the same compound?
A: Its residual activity is 83%.

Q: And the residual activity (PKN2 (human); compound 10.0 µM)?
A: The residual activity was 106%.

Q: And the residual activity (PRKCA (human); compound 1.0 µM)?
A: The residual activity was 88%.

Q: And the residual activity (PRKCA (human); compound 10.0 µM)?
A: Its residual activity is 91%.

Q: And the residual activity (PRKCA (human); compound 50.0 µM)?
A: Its residual activity is 95%.

Q: And the residual activity (PRKCZ (human); compound 10.0 µM)?
A: Its residual activity is 101%.

Q: What about the residual activity (PRKCZ (human); compound 50.0 µM) of the same compound?
A: The residual activity was 93%.

Q: And the residual activity ([2]; compound 10.0 µM)?
A: The residual activity was 84%.

Q: What about the residual activity ([2]; compound 50.0 µM) of the same compound?
A: Its residual activity is 85%.
